We go through eight molecules from US9758524B2, “4-imidazopyridazin-1-yl-benzamides as Btk inhibitors” (Merck Sharp & Dohme B.V., priority 2011, dated 2017).

Read-outs that look alike come from different tables or passages of the source.

In one assay the target is FynT enzyme (Homo sapiens (Human), UniProt P06241). Briefly: FynT enzyme activity (IMAP fluorescence polarization assay). It is filed as biochemical. The note with it: 60 min pre-incubation, 0.2 μM ATP. The gist of the method:
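Human FynT pre-incubated with compounds 60 min at room temperature, then reacted 2 h at room temperature with fluorescein-labelled p34cdc2 peptide (100 nM final). Stopped with IMAP binding solution; fluorescence polarization read after 60 min. Activity as % of ±ATP control difference; EC50 by curve fitting.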
In general terms: In fluorescence polarisation assays a small probe gives low polarisation when free and higher when bound to something large.

The next assay concerns the target Btk enzyme (His-Btk) (Homo sapiens (Human), UniProt Q06187). Briefly: Btk enzyme activity (IMAP fluorescence polarization assay).
The target in another assay is Lck enzyme (Homo sapiens (Human), UniProt P06239). Briefly: Lck enzyme activity (IMAP fluorescence polarization assay). The following applies: read-out: EC50 Lck activity values; IMAP, 60 min pre-incubation, 6 μM ATP; bin bound in μM.
A further assay addresses Src enzyme (Homo sapiens (Human), UniProt P12931). Briefly: Src enzyme activity (IMAP fluorescence polarization assay). The note with it: read-out: EC50 Src activity values; IMAP, 60 min pre-incubation, 4 μM ATP.
For another assay, the target named is Lyn enzyme (Homo sapiens (Human), UniProt P07948). Briefly: Lyn enzyme activity (IMAP fluorescence polarization assay). The note with it: read-out: EC50 Lyn activity values, 60 min pre-incubation, 2 μM ATP, bin bound in μM.
[1] abbreviates: read-out: EC50 Btk activity values, IMAP, 60 min pre-incubation, 5 μM ATP, bin bound in nM.
Setting [2] is: IMAP, 60 min pre-incubation, 5 μM ATP, bin bound in nM.

Sequence of FynT enzyme (P06241 other isoform, or with tags, fused parts or gaps): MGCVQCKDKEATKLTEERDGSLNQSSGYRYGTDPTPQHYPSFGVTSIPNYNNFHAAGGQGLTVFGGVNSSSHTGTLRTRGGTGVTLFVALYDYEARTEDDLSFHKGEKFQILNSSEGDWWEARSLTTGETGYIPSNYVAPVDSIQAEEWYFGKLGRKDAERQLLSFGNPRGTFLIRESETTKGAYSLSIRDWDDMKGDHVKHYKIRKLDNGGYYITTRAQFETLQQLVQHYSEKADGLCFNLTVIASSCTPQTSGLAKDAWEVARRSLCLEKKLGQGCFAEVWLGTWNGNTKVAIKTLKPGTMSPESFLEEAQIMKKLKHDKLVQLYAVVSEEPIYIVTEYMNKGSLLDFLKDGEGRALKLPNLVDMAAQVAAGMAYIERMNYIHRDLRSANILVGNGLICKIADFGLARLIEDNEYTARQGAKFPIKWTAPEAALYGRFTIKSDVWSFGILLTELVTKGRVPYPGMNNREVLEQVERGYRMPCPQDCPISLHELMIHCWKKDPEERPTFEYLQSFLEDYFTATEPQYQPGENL
Sequence of Src enzyme (P12931 whole entry, looked up): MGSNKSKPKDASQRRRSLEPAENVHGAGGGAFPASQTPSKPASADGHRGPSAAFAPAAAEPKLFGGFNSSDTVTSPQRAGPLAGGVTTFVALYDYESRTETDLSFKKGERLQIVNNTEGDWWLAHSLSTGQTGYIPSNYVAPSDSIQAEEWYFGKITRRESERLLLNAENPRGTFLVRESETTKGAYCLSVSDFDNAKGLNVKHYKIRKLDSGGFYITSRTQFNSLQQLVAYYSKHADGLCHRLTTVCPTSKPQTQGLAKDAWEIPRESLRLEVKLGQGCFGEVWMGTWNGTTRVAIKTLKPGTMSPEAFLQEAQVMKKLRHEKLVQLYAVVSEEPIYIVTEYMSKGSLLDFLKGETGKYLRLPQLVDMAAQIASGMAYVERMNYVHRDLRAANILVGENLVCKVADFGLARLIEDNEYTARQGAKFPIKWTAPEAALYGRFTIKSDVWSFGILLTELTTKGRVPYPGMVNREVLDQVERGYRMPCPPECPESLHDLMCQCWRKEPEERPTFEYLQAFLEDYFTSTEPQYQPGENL
Sequence of Btk enzyme (His-Btk) (Q06187 whole entry): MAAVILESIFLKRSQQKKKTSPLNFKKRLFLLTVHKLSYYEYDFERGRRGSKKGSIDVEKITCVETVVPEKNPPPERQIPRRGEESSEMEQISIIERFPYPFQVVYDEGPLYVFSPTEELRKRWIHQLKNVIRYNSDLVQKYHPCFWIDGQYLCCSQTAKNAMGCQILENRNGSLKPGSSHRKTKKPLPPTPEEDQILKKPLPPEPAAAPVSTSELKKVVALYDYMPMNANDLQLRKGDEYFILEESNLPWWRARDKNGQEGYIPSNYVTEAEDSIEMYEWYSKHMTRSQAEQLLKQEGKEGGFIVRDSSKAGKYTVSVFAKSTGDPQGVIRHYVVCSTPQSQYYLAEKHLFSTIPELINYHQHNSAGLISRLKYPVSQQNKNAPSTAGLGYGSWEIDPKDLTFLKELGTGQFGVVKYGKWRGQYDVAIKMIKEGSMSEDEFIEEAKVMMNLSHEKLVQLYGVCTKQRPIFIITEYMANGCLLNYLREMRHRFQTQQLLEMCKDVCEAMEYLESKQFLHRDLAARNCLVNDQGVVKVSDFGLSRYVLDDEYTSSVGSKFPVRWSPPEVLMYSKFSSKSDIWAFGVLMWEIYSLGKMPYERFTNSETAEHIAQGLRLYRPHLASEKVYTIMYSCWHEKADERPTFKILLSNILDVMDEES
Sequence of Lck enzyme (P06239 whole entry): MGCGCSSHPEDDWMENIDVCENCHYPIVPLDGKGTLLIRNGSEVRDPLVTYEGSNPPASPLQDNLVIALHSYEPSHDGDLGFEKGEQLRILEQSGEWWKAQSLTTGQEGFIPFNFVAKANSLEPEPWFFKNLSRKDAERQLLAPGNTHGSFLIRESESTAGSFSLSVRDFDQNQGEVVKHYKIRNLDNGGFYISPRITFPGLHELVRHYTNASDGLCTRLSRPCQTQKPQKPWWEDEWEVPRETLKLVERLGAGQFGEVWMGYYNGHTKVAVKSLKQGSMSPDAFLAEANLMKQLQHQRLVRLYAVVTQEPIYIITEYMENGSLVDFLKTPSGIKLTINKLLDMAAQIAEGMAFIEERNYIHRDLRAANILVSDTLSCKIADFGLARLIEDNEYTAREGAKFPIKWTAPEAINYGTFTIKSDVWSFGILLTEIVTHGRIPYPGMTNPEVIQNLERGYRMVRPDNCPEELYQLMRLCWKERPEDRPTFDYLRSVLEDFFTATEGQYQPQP
Sequence of Lyn enzyme (P07948 whole entry): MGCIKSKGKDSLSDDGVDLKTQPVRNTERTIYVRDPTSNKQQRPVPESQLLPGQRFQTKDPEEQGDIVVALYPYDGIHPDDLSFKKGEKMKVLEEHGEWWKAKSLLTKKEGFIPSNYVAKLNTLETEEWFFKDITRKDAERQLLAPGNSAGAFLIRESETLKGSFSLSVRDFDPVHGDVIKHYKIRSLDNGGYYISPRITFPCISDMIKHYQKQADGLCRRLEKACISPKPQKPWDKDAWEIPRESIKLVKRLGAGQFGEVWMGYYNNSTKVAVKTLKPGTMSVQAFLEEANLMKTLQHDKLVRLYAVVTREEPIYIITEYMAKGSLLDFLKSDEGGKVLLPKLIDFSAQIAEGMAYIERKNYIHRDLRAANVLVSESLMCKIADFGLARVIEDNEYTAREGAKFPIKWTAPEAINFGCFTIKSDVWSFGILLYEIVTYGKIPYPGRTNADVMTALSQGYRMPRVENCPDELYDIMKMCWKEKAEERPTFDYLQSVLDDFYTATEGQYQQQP
Description for Btk enzyme (His-Btk): Inhibition of kinase activity can be measured using the Immobilized Metal Assay for Phosphochemicals (IMAP) assay. IMAP is a homogeneous fluorescence polarization (FP) assay based on affinity capture of phosphorylated peptide substrates. IMAP uses fluorescein-labeled peptide substrates that, upon phosphorylation by a protein kinase, bind to so-called IMAP nanoparticles, which are derivatized with trivalent metal complexes.
Final peptide substrate concentration in assay is 50 nM.

What is called EC50 is the concentration needed to bring the measured effect to its halfway point. Consider `C=CC(=O)N1CCCCCC1c1nc(-c2ccc(C(=O)Nc3ccccn3)cc2)c2c(N)nccn12` (centres unmarked) [Example 37, 4-(3-(1-Acrloylazepan-2-yl)-8-aminoimidazo[1,5-a]pyrazin-1-yl)-N-(pyridin-2-yl)benzamide], for which the EC50 is at least 1000 nM on FynT enzyme; under 10 nM at Btk enzyme (His-Btk) (setting [1]); at least 1 µM on Lck enzyme; at least 1000 nM at Src enzyme; at least 1 µM on Lyn enzyme.

On to `CCCc1ccnc(NC(=O)c2ccc(-c3nc([C@@H]4CCCCN4C(=O)/C=C/COC)n4ccnc(N)c34)cc2F)c1` [Example 114, (S,E)-4-(8-amino-3-(1-(4-methoxybut-2-enoyl)piperidin-2-yl)imidazo[1,5-a]pyrazin-1-yl)-2-fluoro-N-(4-propylpyridin-2-yl)benzamide], for which the EC50 on FynT enzyme is at least 1000 nM; on Btk enzyme (His-Btk), 10 to 100 nM; on Lck enzyme it was at least 1 µM; at Src enzyme it was at least 1000 nM; at Lyn enzyme, at least 1 µM. Moreover, the “EC50 Btk activity values” at Btk enzyme (His-Btk) (setting [2]) was under 100 nM.

For `C[C@H](NC(=O)c1ccnc(Cl)n1)c1nc(-c2ccc(C(=O)Nc3ccccn3)cc2)c2c(N)nccn12` [Example 105, (S)-N-(1-(8-amino-1-(4-(pyridin-2-ylcarbamoyl)phenyl)imidazo[1,5-a]pyrazin-3-yl)ethyl)-2-chloropyrimidine-4-carboxamide], the EC50 was at least 1000 nM at FynT enzyme; 10 to 100 nM at Btk enzyme (His-Btk); at least 1 µM on Lck enzyme; at least 1000 nM on Src enzyme; at least 1 µM on Lyn enzyme. Besides, at Btk enzyme (His-Btk) (setting [2]), the “EC50 Btk activity values” is given as under 100 nM.

With `CC#CC(=O)N1CCC[C@H]1c1nc(-c2ccc(C(=O)Nc3cc(F)ccn3)cc2)c2c(N)nccn12` [Example 106, (S)-4-(8-amino-3-(1-but-2-ynoylpyrrolidin-2-yl)imidazo[1,5-a]pyrazin-1-yl)-N-(4-fluoropyridin-2-yl)benzamide], the concentration for a half-maximal effect (EC50) on FynT enzyme was at least 1000 nM; on Btk enzyme (His-Btk), 10 to 100 nM; at Lck enzyme, at least 1 µM; at Src enzyme it was at least 1000 nM; on Lyn enzyme it was at least 1 µM. The “EC50 Btk activity values” at Btk enzyme (His-Btk) (setting [2]) is listed as under 100 nM.

`CC#CC(=O)N1CCCC[C@H]1c1nc(-c2ccc(C(=O)Nc3ccccn3)cc2C)c2c(N)nccn12` [Example 28, 4-(8-Amino-3-((S)-1-but-2-ynoylpiperidin-2-yl)imidazo[1,5-a]pyrazin-1-yl)-3-methyl-N-(pyridin-2-yl)benzamide]: the EC50 was at least 1000 nM at FynT enzyme; under 10 nM on Btk enzyme (His-Btk) (setting [1]); at least 1 µM at Lck enzyme; at least 1000 nM at Src enzyme; at least 1 µM on Lyn enzyme.

`C=CC(=O)N1CCC[C@H]1c1nc(-c2ccc(C(=O)Nc3cc(F)ccn3)cc2)c2c(N)nccn12` [Example 42, (S)-4-(3-(1-acryloylpyrrolidin-2-yl)-8-aminoimidazo[1,5-a]pyrazin-1-yl)-N-(4-fluoropyridin-2-yl)benzamide]: the 50% effective concentration (EC50) is at least 1000 nM on FynT enzyme; under 10 nM at Btk enzyme (His-Btk) (setting [1]); at least 1 µM at Lck enzyme; at least 1000 nM on Src enzyme; at least 1 µM on Lyn enzyme.

Regarding `Nc1nccn2c([C@@H]3CCCCN3C(=O)c3ccnc(Cl)n3)nc(-c3ccc(C(=O)Nc4cc(F)ccn4)cc3)c12` [Example 80, (S)-4-(8-amino-3-(1-(2-chloropyrimidine-4-carbonyl)piperidin-2-yl)imidazo[1,5-a]pyrazin-1-yl)-N-(4-fluoropyridin-2-yl)benzamide], the EC50 at FynT enzyme is at least 1000 nM; on Btk enzyme (His-Btk) it was 10 to 100 nM; at Lck enzyme, at least 1 µM; on Src enzyme, at least 1000 nM; on Lyn enzyme, at least 1 µM. For the same molecule, the “EC50 Btk activity values” on Btk enzyme (His-Btk) (setting [2]) is on record as under 100 nM.

Turning to `C=CC(=O)N1CCCC[C@H]1c1nc(-c2ccc(C(=O)Nc3cc(F)ccn3)cc2)c2c(N)nccn12` [Example 17, (S)-4-(3-(1-Acryloylpiperidin-2-yl)-8-aminoimidazo[1,5-a]pyrazin-1-yl)-N-(4-fluoropyridin-2-yl)benzamide], the EC50 was at least 1000 nM on FynT enzyme; under 10 nM on Btk enzyme (His-Btk) (setting [1]); at least 1 µM on Lck enzyme; at least 1000 nM on Src enzyme; at least 1 µM at Lyn enzyme.
